The values that follow come from US8552161B2, “Saponin compounds, methods of preparation thereof, use thereof and pharmaceutical compositions” (Uniwersytet W Bialymstoku, priority 2009, dated 2013).

The subject of test [1] is lung carcinoma cell line A549. The experiment in a line: Calcein AM cytotoxicity assay, A549. Type of test: cell-based, human. Particulars: 72 h, means ± SD, three independent experiments in triplicate, read-out: IC50, A 549. The procedure: (§1) Stock solutions (10 mmol/l) of the tested compounds were prepared by dissolving relevant quantity of the substance in DMSO. […] Calcein AM was obtained from Molecular Probes (Invitrogen Corporation, CA, USA).
(§2) All cell lines were cultured in DMEM medium (Sigma, Mo., USA). Medium was supplemented with 10% heat-inactivated fetal bovine serum, 2 mmol/l L-glutamine and 1% penicillin-streptomycin. The cell lines were maintained under standard cell culture conditions at 37° C. and 5% CO2 in a humid environment. Cells were subcultured twice or three times a week using the standard trypsinization procedure.
(§3) All cell lines were cultured in DMEM medium (Sigma, Mo., USA) supplemented with 10% fetal calf serum, 2 mM glutamine, 100 U/ml penicillin and 100 μg/ml streptomycin, at 37° C. in a fully humidified atmosphere containing 5% CO2. Suspensions of these lines (ca. 1.0×10^5 cells/ml) were placed in 96-well microtitre plates and after 3 h of stabilization the tested compounds were added in serially diluted concentrations. Saponins were dissolved in dimethylsulfoxide (DMSO) before addition to cultures. Control cultures were treated with DMSO alone. The final concentration of DMSO in the reaction mixtures never exceeded 0.6%. Four-fold dilutions of the intended test concentration were added at time zero in 20 μl aliquots to the microtitre plate wells. Usually, each test compound was evaluated at six 4-fold dilutions and in routine testing; the highest well concentration was 50 μM, although this varied in a few cases, depending on the test compound. After 72 h of culture, the cells were incubated with Calcein AM solution (Molecular Probes) for 1 h. The fluorescence of viable cells was quantified using a Fluoroscan Ascent instrument (Microsystems).

Test [2] relates to cervical carcinoma cell line HeLa. As to the kind of experiment: Calcein AM cytotoxicity assay, HeLa. The test is classed as cell-based. To be noted: 72 h, means ± SD, three independent experiments in triplicate. The procedure: as §1, §2, §3
The subject of test [3] is normal human fibroblasts BJ. The experiment in a line: Calcein AM cytotoxicity assay, normal fibroblasts BJ. To be noted: 72 h, means ± SD, three independent experiments in triplicate. Type of test: cell-based. As to the method:
as §1, §2, §3

Test [4] has as its system breast carcinoma cell line MCF7. As to the kind of experiment: Calcein AM cytotoxicity assay, MCF7. The test is classed as cell-based, human. Particulars: Calcein AM assay, 72 h; means ± SD, three independent experiments in triplicate. As to the method: as §1, §2, §3
The test system of test [5] is malignant melanoma cell line G-361. As to the kind of experiment: Calcein AM cytotoxicity assay, G-361. The test is classed as cell-based, human. Particulars: 72 h, means ± SD, three independent experiments in triplicate. The procedure: as §1, §2, §3
For test [6], the system named is T-lymphoblastic leukemia cell line CEM. As to the kind of experiment: Calcein AM cytotoxicity assay, CEM. The test is classed as cell-based. To be noted: Calcein AM assay, 72 h; means ± SD, three independent experiments in triplicate. As to the method:
as §1, §2, §3

Turning to `COc1ccc(C(=O)O[C@H]2[C@H](O[C@@H]3[C@@H](OC(C)=O)[C@H](O[C@H]4C[C@H]5[C@@H]6CC=C7C[C@@H](O)CC[C@]7(C)[C@H]6CC[C@]5(C)[C@@]4(O)[C@H](C)COCc4ccccc4)OC[C@@H]3O)OC[C@@H](O)[C@@H]2O)cc1` [Compound 1, (20R)-21-Benzyloxy-20-methylpregn-5-ene-3β,16β,17α-triol 16-O-{2-O-(4-methoxybenzoyl)-β-D-xylopyranosyl-(1→3)-2′-O-acetyl-α-L-arabinopyranoside}], the IC50 in test [1] was 100 ± 50 nM; in test [2], 200 ± 10 nM; in test [3], 300 ± 40 nM; in test [4], 600 ± 100 nM; in test [5] it was 750 ± 80 nM; in test [6], 20 ± 1 nM.
For the compound `COc1ccc(C(=O)O[C@H]2[C@H](O[C@@H]3[C@@H](OC(C)=O)[C@H](O[C@H]4C[C@H]5[C@@H]6CC=C7C[C@@H](O)CC[C@]7(C)[C@H]6CC[C@]5(C)[C@@]4(O)[C@H](C)COC(=O)c4ccccc4)OC[C@@H]3O)OC[C@@H](O)[C@@H]2O)cc1` [Compound 2, (20R)-21-O-benzoyl-20-methylpregn-5-ene-3β,16β,17α,21-tetraol 16-O-{2-O-(4-methoxybenzoyl)-β-D-xylopyranosyl-(1→3)-2′-O-acetyl-α-L-arabinopyranoside}], the half-maximal inhibitory concentration (IC50) in test [1] is 170 ± 40 nM; in test [2], 240 ± 60 nM; in test [3] it was 100 ± 20 nM; in test [4], 700 ± 100 nM; in test [5], 1660 ± 900 nM; in test [6] it was 70 ± 10 nM.
On to `CCCCC(=O)OC[C@@H](C)[C@@]1(O)[C@@H](O[C@@H]2OC[C@H](O)[C@H](O[C@@H]3OC[C@@H](O)[C@H](O)[C@H]3OC(=O)c3ccc(OC)cc3)[C@H]2OC(C)=O)C[C@H]2[C@@H]3CC=C4C[C@@H](O)CC[C@]4(C)[C@H]3CC[C@@]21C` [Compound 4, (20R)-21-O-pentanoyl-20-methylpregn-5-ene-3β,16β,17α,21-tetraol 16-O-{2-O-(4-methoxybenzoyl)-β-D-xylopyranosyl-(1→3)-2′-O-acetyl-α-L-arabinopyranoside}], for which the IC50 was 160 ± 40 nM in test [1]; 170 ± 10 nM in test [2]; 500 ± 60 nM in test [3]; 500 ± 70 nM in test [4]; 390 ± 60 nM in test [5]; 60 ± 10 nM in test [6].
On to `CCCCCCC(=O)OC[C@@H](C)[C@@]1(O)[C@@H](O[C@@H]2OC[C@H](O)[C@H](O[C@@H]3OC[C@@H](O)[C@H](O)[C@H]3OC(=O)c3ccc(OC)cc3)[C@H]2OC(C)=O)C[C@H]2[C@@H]3CC=C4C[C@@H](O)CC[C@]4(C)[C@H]3CC[C@@]21C` [Compound 5, (20R)-21-O-Heptanoyl-20-methylpregn-5-ene-3β,16β,17α,21-tetraol 16-O-{2-O-(4-methoxybenzoyl)-β-D-xylopyranosyl-(1-3)-2′-O-acetyl-α-L-arabinopyranoside}], for which the IC50 was 20 ± 5 nM in test [1]; 30 ± 2 nM in test [2]; 600 ± 70 nM in test [3]; 400 ± 40 nM in test [4]; 1280 ± 200 nM in test [5]; 10 ± 2 nM in test [6].
